Laboratory results published in patent US20240336571A1, “NOVEL CYCLOPROPYL COMPOUNDS” (ICAGEN, LLC, priority 2021, published 2024).

Target: human Kv7.2 (Homo sapiens (Human), UniProt O43526)
Experiment: SyncroPatch 384 electrophysiology, activation of Kv7.2 in CHO cells
Format: cell-based
Settings: for EC50: CHO cells stably expressing human Kv7.2, potassium current at -90 mV repolarizing step, in presence of zinc pyrithione; for Emax: CHO
Description: The potency of Kv7 potentiators was determined using the SyncroPatch 384 (Nanion) high throughput electrophysiology platform.
CHO cells stably expressing either human Kv7.2, Kv7.4 or Kv7.5/7.3 under a constitutive CMV promoter were used for these studies. Cells were maintained in F12 Hams+1 mM L-glutamine (Hyclone) supplemented with 10% FBS (Sigma), 0.3×NEAA (Non-essential Gamino-acids) and 400 ug/ml G418 at 37° C. in 5% CO2. Cells were cultured in T-225 flasks (Nunc) for 2-3 days to reach 85-95% confluence prior to electrophysiological recording.
Earle's balanced salt solution (in mM): 135 NaCl, 5.4 KCl, 5 Glucose, 2 CaCl2, 1 MgCl2, 5 HEPES, pH 7.4. Seal enhancer solution (in mM): 90 NaCl, 3 KCl, 35 CaCl2, 10 MgCl2, 10 HEPES, pH 7.4. Extracellular recording solution (in mM): 71 NaCl, 70 NMDG, 13 KCl, 5 Glucose, 2 CaCl2, 1 MgCl2, 10 HEPES, pH 7.4. Intracellular recording solution (in mM): 130 KF, 20 KCl, 4 EGTA, 10 HEPES, 2 EDTA, 0.01 Escin, pH 7.2.
Cells were harvested for electrophysiological recording upon reaching appropriate confluence. Cells were first washed in DPBS (Hyclone, Cat #SH30028.03) and then 2 ml of Accutase (MP Biomedicals #1000449) was added at 28° C. until ˜90% of cells were suspended. F12 HAM's media+1 mM L-glutamine (Hyclone, SH30026.02) was then added to the flask to dilute the accutase. Cells were then triturated until a single cell suspension was achieved, a cell count was performed, and cells were centrifuged for 2 min. at 1,000 rpm. Media was then aspirated, and cells were resuspended in Earle's balanced salt solution to a concentration of 0.75×10^6 cells/ml and allowed to recover for 25 min at 10° C.
At the beginning of each assay, 20 μl of cell suspension was dispensed into each well of a multi-hole 384-well SyncroPatch chip by the onboard pipettor. Cell sealing was initiated, and seal enhancer solution was added to facilitate seal formation. Upon completion of sealing, cells were washed 3 times with extracellular recording solution and the assay voltage protocol was started. Human Kv7.2, Kv7.4 or Kv7.5/7.3 channels were evaluated using a voltage protocol in which cells were voltage-clamped at a holding potential of −60 mV. Potassium currents were continuously activated with a series of three voltage steps to −30 mV for 3 seconds, 40 mV for 1 second and −90 mV for 4 seconds with 12 seconds between successive voltage sweeps. Potassium currents were measured from the −90 mV repolarizing step. Baseline current was assessed for 3.5 minutes prior to the addition of 5.6 μM zinc pyrithione (1 μM for Kv7.4). Kv7.2, Kv7.4 or Kv7.5/7.3 current in the presence of zinc pyrithione was acquired over five minutes to allow channels to reach steady state activity prior to addition of test agents. Channel activity was monitored for three minutes preceding the addition of 30 μM ML-213 (3 minutes) to achieve maximum activation. 150 mM TEA with 10 μM XE-991 was applied for 2 minutes to measure the leak current during maximum inhibition of Kv7.2, Kv7.4 or Kv7.5/7.3 channels.
Data were collected on the SyncroPatch platform using PatchControl software (Nanion) and processed and analyzed using DataControl Software (Nanion). Percent activation was calculated from potassium current as follows: The average current for the 5 sweeps in the presence of zinc pyrithione immediately preceding test agent addition was taken as the ‘control’ data. Likewise, the average potassium current in the presence of test agents 5 sweeps immediately preceding addition of 30 μM ML-213 was determined for ‘drug’ data. The average potassium current 5 sweeps immediately prior to addition of 150 mM TEA+10 μM XE-991 was determined for ‘max activation’ data while average currents from 5 sweeps immediately following addition of TEA was determined for ‘max inhibition’ data. Percent activation for each of the 384-wells of a sealchip was calculated as ((‘drug’−‘max inhibition’)/(‘max activation’−‘max inhibition’))*100 with Pipeline Pilot (Accelrys). […]

[1] = Kv7.2 activation max %, relative to 30 μM ML-213 max activation

Row | Molecule | EC50 [nM] | Emax [1] [%] | Kv7.2 Emax [1] [%]
1 | O=C(NCc1ccnc(Cl)c1)N[C@@H]1C[C@H]1c1ccccc1 [Example 19, 1-[(2-chloropyridin-4-yl)methyl]-3-[(1R,2S)-2-phenylcyclopropyl]urea] | 6830 | 60 | –
2 | 1-[(1S,2R)-2-cyclohexylcyclopropyl]-3-[(2-imidazol-1-ylpyridin-4-yl)methyl]urea [Example 15] | 1570 | – | 56
3 | CC(C)c1nccc(CNC(=O)N[C@@H]2C[C@H]2C2CCCCC2)n1 (racemic) [Example 4, 1-[(2-propan-2-ylpyrimidin-4-yl)methyl]-3-[rac-(1R,2S)-2-cyclohexylcyclopropyl]urea] | 4400 | 71 | –
4 | C[C@@H](NC(=O)N[C@@H]1C[C@H]1c1ccccc1)c1ccnc(OC(F)F)c1 (stereo in doubt) [Example 38] | 3810 | 42 | –
5 | O=C(NCc1ccnc(OC(F)F)c1)N[C@@H]1C[C@H]1C1CCCO1 (mixture of isomers) [Example 43, 1-[[2-(difluoromethoxy)pyridin-4-yl]methyl]-3-[rac-(1R,2R)-2-(oxolan-2-yl)cyclopropyl]urea] | 8010 | 61 | –
6 | O=C(NCc1ccnc(-n2ccnc2)c1)N[C@@H]1C[C@H]1c1ccccc1 [Example 27, 1-[(2-imidazol-1-ylpyridin-4-yl)methyl]-3-[(1R,2S)-2-phenylcyclopropyl]urea] | 2840 | 45 | –
7 | O=C(NCc1ccnc(Oc2ccccc2)c1)N[C@@H]1C[C@H]1c1ccccc1 [Example 34, 1-[(2-phenoxypyridin-4-yl)methyl]-3-[(1R,2S)-2-phenylcyclopropyl]urea] | 4780 | 62 | –
8 | N#Cc1cccc(CNC(=O)N[C@@H]2C[C@H]2c2ccccc2)n1 [Example 18, 1-[(6-cyanopyridin-2-yl)methyl]-3-[(1R,2S)-2-phenylcyclopropyl]urea] | 3020 | 62 | –
9 | O=C(NCc1ccnc(OC2CCOCC2)c1)N[C@@H]1C[C@H]1c1ccccc1 [Example 20, 1-[[2-(oxan-4-yloxy)pyridin-4-yl]methyl]-3-[(1R,2S)-2-phenylcyclopropyl]urea] | 5930 | 58 | –
10 | CC(F)(F)c1cc(CNC(=O)N[C@@H]2C[C@H]2c2ccccc2)ccn1 [Example 26, 1-[[2-(1,1-difluoroethyl)pyridin-4-yl]methyl]-3-[(1R,2S)-2-phenylcyclopropyl]urea] | 1560 | 97 | –
11 | O=C(NCc1ccnc(-n2ccnc2)c1)NC1CC1C1CCCCC1 (centres unmarked) [Example 11, 1-(2-cyclohexylcyclopropyl)-3-[(2-imidazol-1-ylpyridin-4-yl)methyl]urea] | 2140 | 52 | –
12 | O=C(NCc1ccnc(C(F)F)c1)N[C@@H]1C[C@H]1c1ccccc1 [Example 21, 1-[[2-(difluoromethyl)pyridin-4-yl]methyl]-3-[(1R,2S)-2-phenylcyclopropyl]urea] | 3200 | 72 | –
13 | COc1cc(CNC(=O)N[C@@H]2C[C@H]2c2ccccc2)ccn1 (racemic) [Example 5, 1-[(2-methoxypyridin-4-yl)methyl]-3-[rac-(1R,2S)-2-phenylcyclopropyl]urea] | 3750 | 44 | –
14 | N#Cc1cc(CNC(=O)N[C@@H]2C[C@H]2c2ccccc2)ccn1 (racemic) [Example 8, 1-[(2-cyanopyridin-4-yl)methyl]-3-[rac-(1R,2S)-2-phenylcyclopropyl]urea] | 4180 | 40 | –

Stronger by EC50, values ahead:

Row | EC50 [nM] | Emax [1] [%] | Kv7.2 Emax [1] [%] | Molecule
15 | 120 | 69 | – | C[C@@]1(NC(=O)NCc2ccnc(OC(F)F)c2)C[C@H]1c1ccccc1 (racemic) [Example 36, 1-[[2-(difluoromethoxy)pyridin-4-yl]methyl]-3-[rac-(1R,2S)-1-methyl-2-phenylcyclopropyl]urea]
16 | 910 | 74 | – | O=C(NCc1ccnc(OCF)c1)N[C@@H]1C[C@H]1c1ccccc1 [Example 37]
17 | 960 | 57 | – | O=C(NCc1ccnc(OC2COC2)c1)N[C@@H]1C[C@H]1c1ccccc1 [Example 16]
18 | 1190 | 43 | – | N#Cc1cc(CNC(=O)N[C@@H]2C[C@H]2c2ccccc2)ccn1 [Example 10, 1-[(2-cyanopyridin-4-yl)methyl]-3-[(1R,2S)-2-phenylcyclopropyl]urea]
19 | 1000 | 43 | – | O=C(NCc1cc(OC(F)F)ncn1)N[C@H]1C[C@@H]1C(F)(F)F [Example 52, 1-[[6-(difluoromethoxy)pyrimidin-4-yl]methyl]-3-[(1S,2S)-2-(trifluoromethyl)cyclopropyl]urea]
20 | 570 | 84 | – | O=C(NCc1ccnc(-n2cccn2)c1)N[C@@H]1C[C@H]1C1CCCCC1 (racemic) [Example 2, 1-[rac-(1R,2S)-2-cyclohexylcyclopropyl]-3-[(2-pyrazol-1-ylpyridin-4-yl)methyl]urea]
21 | 50 | 77 | – | C[C@]1(C(F)(F)F)C[C@@H]1NC(=O)NCc1ccnc(OC(F)F)c1 (racemic) [Example 47, 1-[[2-(difluoromethoxy)pyridin-4-yl]methyl]-3-[rac-(1R,2R)-2-methyl-2-(trifluoromethyl)cyclopropyl]urea]
22 | 780 | 57 | – | O=C(NCc1ccnc(-c2cnsc2)c1)N[C@@H]1C[C@H]1C1CCCCC1 (racemic) [Example 40, 1-[rac-(1R,2S)-2-cyclohexylcyclopropyl]-3-[[2-(1,2-thiazol-4-yl)pyridin-4-yl]methyl]urea]
23 | 570 | 70 | – | O=C(NCc1ccnc(OCC(F)CF)c1)N[C@@H]1C[C@H]1c1ccccc1 (stereo partly drawn) [Example 48, 1-[[2-(2,3-difluoropropoxy)pyridin-4-yl]methyl]-3-[(1R,2S)-2-phenylcyclopropyl]urea]
24 | 310 | 40 | – | C[C@H](NC(=O)N[C@@H]1C[C@H]1c1ccccc1)c1ccnc(-n2cnc(C(F)(F)F)c2)c1 [Example 33, 1-[(1R,2S)-2-phenylcyclopropyl]-3-[(1S)-1-[2-[4-(trifluoromethyl)imidazol-1-yl]pyridin-4-yl]ethyl]urea]
25 | 520 | 47 | – | COc1cc([C@H](C)NC(=O)N[C@@H]2C[C@H]2c2ccccc2)ccn1 [Example 29, 1-[(1S)-1-(2-methoxypyridin-4-yl)ethyl]-3-[(1R,2S)-2-phenylcyclopropyl]urea]
26 | 160 | 45 | – | O=C(NCc1ccnc(-n2cnc(C(F)(F)F)c2)c1)N[C@@H]1C[C@H]1C1CCCCC1 (racemic) [Example 24, 1-[rac-(1R,2S)-2-cyclohexylcyclopropyl]-3-[[2-[4-(trifluoromethyl)imidazol-1-yl]pyridin-4-yl]methyl]urea]
27 | 200 | 66 | – | O=C(NCc1ccnc(OCC(F)F)c1)N[C@@H]1C[C@H]1c1ccccc1 [Example 35, 1-[[2-(2,2-difluoroethoxy)pyridin-4-yl]methyl]-3-[(1R,2S)-2-phenylcyclopropyl]urea]
28 | 330 | 40 | – | CC(F)(F)[C@@H]1C[C@H]1NC(=O)NCc1ccnc(OC(F)F)c1 (racemic) [Example 44, 1-[[2-(difluoromethoxy)pyridin-4-yl]methyl]-3-[rac-(1R,2R)-2-(1,1-difluoroethyl)cyclopropyl]urea]
